According to patent publication US20100148126A1 (priority 2008, published 2010):

Biological target: wild-type αHL protein pore (Staphylococcus aureus, UniProt P09616)
Assay type: binding

Chain of wild-type αHL protein pore (P09616 27-319 limits assumed): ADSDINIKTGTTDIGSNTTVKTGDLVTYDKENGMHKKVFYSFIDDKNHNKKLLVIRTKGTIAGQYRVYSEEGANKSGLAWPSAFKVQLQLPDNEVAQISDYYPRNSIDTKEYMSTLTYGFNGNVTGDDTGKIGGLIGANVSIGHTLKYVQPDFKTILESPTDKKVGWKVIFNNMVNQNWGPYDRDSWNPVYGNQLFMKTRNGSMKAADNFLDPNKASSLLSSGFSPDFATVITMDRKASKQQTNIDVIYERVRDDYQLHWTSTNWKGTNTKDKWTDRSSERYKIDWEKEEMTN

Cl.ClCCN1CCOCC1 [CM, 4-(2-chloroethyl)morpholine hydrochloride] and CCNCC.Cl [DEA, diethylammonium chloride] are within error of each other in “mean amplitude of analyte-boromycin complex events” value (shortened to “mean amplitude”): 33.5±1.2 pA for the first, 33.6±0.8 pA for the second.

CCN(CC)CC.Cl [TEA, triethylammonium chloride] and KCl [K^+] are within error of each other in “mean amplitude” value: 33.7±0.4 pA for the first, 33.6±0.3 pA for the second.

NH4Cl [NH4^+] was tested, and the “mean amplitude” value was 33.7±0.2 pA.

First: Cl.ClCCN1CCOCC1 [CM, 4-(2-chloroethyl)morpholine hydrochloride]
Second: CCNCC.Cl [DEA, diethylammonium chloride]
The “τoff (mean dwell time) of analyte-boromycin complex” value (“τoff (mean dwell time)” below) of the first is lower: 34.7 ± 0.6 ms for the first, 40.5 ± 0.5 ms for the second.

First: CCN(CC)CC.Cl [TEA, triethylammonium chloride]
Second: KCl [K^+]
The “τoff (mean dwell time)” value of the first is higher: 60.6 ± 1.9 ms for the first, 52.1 ± 0.3 ms for the second.

For NH4Cl [NH4^+], the “τoff (mean dwell time)” value was 75.0 ± 1.6 ms.

In the case of boromycin, the “increase of event mean dwell time in BMIM-Cl versus NaCl” value is reported as 2.6 fold.
